pIC50: −log10 of the molar value.
What follows are molecules tested against SOS1:KRAS (G12C) interaction (Homo sapiens (Human), UniProt Q07889) (assay: SOS1 KRas(G12C) FRET Assay). Settings: 0.5 nM His10-SOS1 (res. 564-1049), 2.5 nM GST-KRAS G12C (res. 1-169), 2 hrs at RT.
Type: binding
Procedure, shortened: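 GST-KRAS G12C (res. 1-169) at 2.5 nM and His10-SOS1 (res. 564-1049) at 0.5 nM, final, in PBS with 0.1% BSA, 5 mM MgCl2, 100 mM KF, 5 mM DTT and 0.5% DMSO. After 2 h at RT, FRET read at 665/615 nm and normalized to DMSO and no-SOS1 controls. IC50 by non-linear regression.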

SOS1:KRAS (G12C) interaction, sequence (Q07889 564-1049, stated change not applied): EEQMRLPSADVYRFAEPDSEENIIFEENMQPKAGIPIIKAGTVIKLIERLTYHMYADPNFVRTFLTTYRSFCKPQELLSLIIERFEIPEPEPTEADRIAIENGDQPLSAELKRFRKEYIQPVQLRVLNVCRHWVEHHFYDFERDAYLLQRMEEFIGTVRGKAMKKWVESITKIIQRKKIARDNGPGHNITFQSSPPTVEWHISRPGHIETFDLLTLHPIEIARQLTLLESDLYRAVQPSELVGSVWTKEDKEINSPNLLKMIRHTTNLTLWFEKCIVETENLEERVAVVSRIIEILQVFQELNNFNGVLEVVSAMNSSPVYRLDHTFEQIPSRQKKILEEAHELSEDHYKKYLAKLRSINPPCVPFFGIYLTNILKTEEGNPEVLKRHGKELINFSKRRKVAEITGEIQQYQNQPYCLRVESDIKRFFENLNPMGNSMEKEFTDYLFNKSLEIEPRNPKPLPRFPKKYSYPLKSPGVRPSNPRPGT

Row | Compound | pIC50
1 | Cc1c([C@@H](C)NC(=O)c2cn(C3CCOCC3)c(=O)c(C)c2NC2CCN(C)CC2)cccc1C(F)(F)F [Example 19, (R)-5-methyl-N-(1-(2-methyl-3-(trifluoromethyl)phenyl)ethyl)-4-((1-methylpiperidin-4-yl)amino)-6-oxo-1-(tetrahydro-2H-pyran-4-yl)-1,6-dihydropyridine-3-carboxamide] | 6.46
2 | Cc1c([C@@H](C)NC(=O)c2cn(C3CCOCC3)c(=O)cc2N[C@@H]2CCCN(C)CC2)cccc1C(F)(F)F (single isomer, unassigned) [Example 34] | 7.64
3 | C[C@@H](NC(=O)c1cn(C2CCC2)c(=O)cc1N[C@H]1[C@@H]2CN(C)C[C@@H]21)c1cccc(S(F)(F)(F)(F)F)c1 [Example 163, 1-cyclobutyl-4-(((1R,5S,6s)-3-methyl-3-azabicyclo[3.1.0]hexan-6-yl)amino)-6-oxo-N-((R)-1-(3-(pentafluoro-16-sulfaneyl)phenyl)ethyl)-1,6-dihydropyridine-3-carboxamide] | 7.53
4 | C[C@@H](NC(=O)c1cn(C23CC(C2)C3)c(=O)cc1N[C@H]1[C@@H]2CNC[C@@H]21)c1cccc(C(F)F)c1F [Example 89, 4-(((1R,5S,6s)-3-azabicyclo[3.1.0]hexan-6-yl)amino)-1-(bicyclo[1. 1.1]pentan-1-yl)-N-((R)-1-(3-(difluoromethyl)-2-fluorophenyl)ethyl)-6-oxo-1,6-dihydropyridine-3-carboxamide] | 7.64
5 | C[C@@H](NC(=O)c1cn(C2(C(F)F)CC2)c(=O)cc1N[C@H]1CN2CCC1(F)CC2)c1cccc(C(F)F)c1F [Example 186, N-((R)-1-(3-(difluoromethyl)-2-fluorophenyl)ethyl)-1-(1-(difluoromethyl)cyclopropyl)-4-(((S)-4-fluoroquinuclidin-3-yl)amino)-6-oxo-1,6-dihydropyridine-3-carboxamide] | 7.56
6 | Cc1c([C@@H](C)NC(=O)c2cn(C3CCOCC3)c(=O)cc2N[C@H]2CCCCN(C)C2)cccc1C(F)(F)F [Example 35, N-((R)-1-(2-methyl-3-(trifluoromethyl)phenyl)ethyl)-4-(((S)-1-methylazepan-3-yl)amino)-6-oxo-1-(tetrahydro-2H-pyran-4-yl)-1,6-dihydropyridine-3-carboxamide] | 7.36
7 | Cc1c([C@@H](C)NC(=O)c2cn(C3CCOCC3)c(=O)cc2NC2CNC2)cccc1C(F)(F)F [Example 43, (R)-4-(azetidin-3-ylamino)-N-(1-(2-methyl-3-(trifluoromethyl)phenyl)ethyl)-6-oxo-1-(tetrahydro-2H-pyran-4-yl)-1,6-dihydropyridine-3-carboxamide] | 7.12
8 | C[C@@H](NC(=O)c1cn(C2(C(F)F)CC2)c(=O)cc1N[C@@H]1CCN(C)C[C@@H]1F)c1cccc(C(F)F)c1F (single isomer, unassigned) [Example 67] | 7.97
9 | Cc1c([C@@H](C)NC(=O)c2cn(C3CCOCC3)c(=O)cc2NC2[C@@H]3C[C@H]2CN(C)C3)cccc1C(F)(F)F (single isomer, unassigned) [Example 22] | 7.59
10 | Cc1c([C@@H](C)NC(=O)c2cn(C3CCOCC3)c(=O)cc2N[C@@H]2CCCCN(C)C2)cccc1C(F)(F)F [Example 36, N-((R)-1-(2-methyl-3-(trifluoromethyl)phenyl)ethyl)-4-(((R)-1-methylazepan-3-yl)amino)-6-oxo-1-(tetrahydro-2H-pyran-4-yl)-1,6-dihydropyridine-3-carboxamide] | 7.51
11 | C[C@@H](NC(=O)c1cn([C@@H]2C[C@H]2C2CC2)c(=O)cc1N[C@H]1[C@@H]2CN(C)C[C@@H]21)c1cccc(C(F)F)c1F [Example 71, 1-((1S,2R)-[1,1′-bi(cyclopropan)]-2-yl)-N-((R)-1-(3-(difluoromethyl)-2-fluorophenyl)ethyl)-4-(((1R5S,6s)-3-methyl-3-azabicyclo[3.1.0]hexan-6-yl)amino)-6-oxo-1,6-dihydropyridine-3-carboxamide] | 7.66
12 | CCN1C[C@@H]2[C@H](C1)[C@H]2Nc1cc(=O)n(C2(C(F)F)CC2)cc1C(=O)N[C@H](C)c1cccc(C(F)F)c1F [Example 58, N-((R)-1-(3-(difluoromethyl)-2-fluorophenyl)ethyl)-1-(1-(difluoromethyl)cyclopropyl)-4-(((1R,5S,6s)-3-ethyl-3-azabicyclo[3.1.0]hexan-6-yl)amino)-6-oxo-1,6-dihydropyridine-3-carboxamide] | 7.51

Now from value to molecule:

Row | pIC50 | Compound
13 | 7.74 | C[C@@H](NC(=O)c1cn([C@@H]2CCOC[C@H]2F)c(=O)cc1N[C@@H]1[C@@H]2C[C@H]1CN(C)C2)c1cccc(C(F)F)c1F [Example 244, N-((R)-1-(3-(difluoromethyl)-2-fluorophenyl)ethyl)-1-((3S,4R)-3-fluorotetrahydro-2H-pyran-4-yl)-4-(((1R5S,6s)-3-methyl-3-azabicyclo[3.1.1]heptan-6-yl)amino)-6-oxo-1,6-dihydropyridine-3-carboxamide]
14 | 6.95 | C[C@@H](NC(=O)c1cn(C23CC(C2)C3)c(=O)cc1N[C@H]1[C@@H]2CN(C)C[C@@H]21)c1cccc(OC(F)F)c1Cl [Example 180, 1-(bicyclo[1.1.1]pentan-1-yl)-N-((R)-1-(2-chloro-3-(difluoromethoxy)phenyl)ethyl)-4-(((1R,5S,6s)-3-methyl-3-azabicyclo[3.1.0]hexan-6-yl)amino)-6-oxo-1,6-dihydropyridine-3-carboxamide]
15 | 7.78 | C[C@@H](NC(=O)c1cn([C@H]2CC2(F)F)c(=O)cc1N[C@H]1[C@@H]2CN(C)C[C@@H]21)c1cccc(C(F)(F)F)c1F (single isomer, unassigned) [Example 200]
16 | 7.43 | C[C@@H](NC(=O)c1cn([C@H]2C[C@@H]2C)c(=O)cc1N[C@H]1[C@@H]2CN(C)C[C@@H]21)c1cccc(C(F)F)c1F (single isomer, unassigned) [Example 271]
17 | 8.85 | CC(=O)N1CC[C@@](C)(n2cc(C(=O)N[C@H](C)c3cccc(C(F)F)c3F)c(NC3CCN(C)CC3)cc2=O)C1 (single isomer, unassigned) [Example 266]
18 | 7.62 | C[C@@H](NC(=O)c1cn([C@H]2C[C@@H](C3CC3)C2)c(=O)cc1N[C@H]1[C@@H]2CN(C)C[C@@H]21)c1cccc(C(F)F)c1F (single isomer, unassigned) [Example 248]
19 | 6.86 | Cc1c([C@@H](C)NC(=O)c2cn(C3CCOCC3)c(=O)cc2NC2CCN(C)CC2(F)F)cccc1C(F)(F)F (stereo partly drawn) [Example 283, 4-((3,3-difluoro-1-methylpiperidin-4-yl)amino)-N-((R)-1-(2-methyl-3-(trifluoromethyl)phenyl)ethyl)-6-oxo-1-(tetrahydro-2H-pyran-4-yl)-1,6-dihydropyridine-3-carboxamide]
20 | 7.04 | C[C@@H](NC(=O)c1cn([C@@]2(C(F)(F)F)CCOC2)c(=O)cc1NC1CCN(C)CC1)c1cccc(C(F)F)c1F [Example 232, N-((R)-1-(3-(difluoromethyl)-2-fluorophenyl)ethyl)-4-((1-methylpiperidin-4-yl)amino)-6-oxo-1-((S)-3-(trifluoromethyl)tetrahydrofuran-3-yl)-1,6-dihydropyridine-3-carboxamide]
21 | 8.61 | C[C@@H](NC(=O)c1cn(C2(C)CCN(C(=O)C3(F)CC3)C2)c(=O)cc1NC1CCN(C)CC1)c1cccc(C(F)F)c1F (stereo partly drawn) [Example 267, N-((R)-1-(3-(difluoromethyl)-2-fluorophenyl)ethyl)-1-(1-(1-fluorocyclopropane-1-carbonyl)-3-methylpyrrolidin-3-yl)-4-((1-methylpiperidin-4-yl)amino)-6-oxo-1,6-dihydropyridine-3-carboxamide]
22 | 7.81 | [2H]C([2H])([2H])N1CCC(Nc2cc(=O)n(C3(C(F)F)CC3)cc2C(=O)N[C@H](C)c2cccc(C(F)F)c2F)CC1 [Example 286, (R)-N-(1-(3-(difluoromethyl)-2-fluorophenyl)ethyl)-1-(1-(difluoromethyl)cyclopropyl)-4-((1-(methyl-d3)piperidin-4-yl)amino)-6-oxo-1,6-dihydropyridine-3-carboxamide]
23 | 8.03 | C[C@@H](NC(=O)c1cn(C2CCC2)c(=O)cc1N[C@H]1[C@@H]2CN(C)C[C@@H]21)c1cccc(C(F)(F)F)c1F [Example 207, 1-cyclobutyl-N-((R)-1-(2-fluoro-3-(trifluoromethyl)phenyl)ethyl)-4-(((1R,5S,6s)-3-methyl-3-azabicyclo[3.1.0]hexan-6-yl)amino)-6-oxo-1,6-dihydropyridine-3-carboxamide]
24 | 7.85 | C[C@@H](NC(=O)c1cn([C@@H]2CC2(F)F)c(=O)cc1N[C@H]1[C@@H]2CN(C)C[C@@H]21)c1cccc(C(C)(F)F)c1F (single isomer, unassigned) [Example 201]
25 | 7.29 | Cc1c([C@@H](C)NC(=O)c2cn(C3CCOCC3)c(=O)cc2N[C@@H]2CC[C@@]23CCCN(C)C3)cccc1C(F)(F)F (single isomer, unassigned) [Example 299]
26 | 7.58 | C[C@@H](NC(=O)c1cn(C23CC(C2)C3)c(=O)cc1N[C@H]1[C@@H]2CN(C)C[C@@H]21)c1cccc(C(F)(F)F)c1F [Example 205, 1-(bicyclo[1.1.1]pentan-1-yl)-N-((R)-1-(2-fluoro-3-(trifluoromethyl)phenyl)ethyl)-4-(((1R,5S,6s)-3-methyl-3-azabicyclo[3.1.0]hexan-6-yl)amino)-6-oxo-1,6-dihydropyridine-3-carboxamide]
27 | 8.33 | C[C@@H](NC(=O)c1cn([C@]23COC[C@H]2C3)c(=O)cc1NC1CCN(C)CC1)c1cccc(C(F)F)c1F [Example 285, 1-((1S,SS)-3-oxabicyclo[3.1.0]hexan-1-yl)-N-((R)-1-(3-(difluoromethyl)-2-fluorophenyl)ethyl)-4-((1-methylpiperidin-4-yl)amino)-6-oxo-1,6-dihydropyridine-3-carboxamide]
28 | 7.66 | C[C@@H](NC(=O)c1cn(C2(C(F)F)CC2)c(=O)cc1N[C@@H]1[C@@H]2C[C@H]1CN(C)C2)c1cccc(C(F)F)c1F (single isomer, unassigned) [Example 250]

From patent US20230348424A1, “HETEROCYCLIC COMPOUNDS AND METHODS OF USE” (Schrödinger, Inc., priority 2022, published 2023)
